From patent US10112899B2 (ViiV HEALTHCARE UK LIMITED, priority 2014, dated 2018) come the findings set out here.

Molecules are shown by their SMILES.

The test system of this assay is HIV in the HTLV-1 transformed cell line MT-4. Put plainly: organism not typed. It counts as cell-based. Conditions: MT4, 96 h, MT-4 cells; luciferase/cell titer glo readout after 96 hours; 10 point dose response. On the technique in general: Cellular ATP, detected with luciferase, serves as a proxy for viable cell number.
By IC50 is commonly meant the midpoint of a concentration-inhibition curve. A lower IC50 goes with higher potency. `COc1ccccc1C(=O)N1Cc2c(C)c(-c3cc(F)c4c(c3C)CCCO4)c([C@H](OC(C)(C)C)C(=O)O)c(C)c2C1` (atropisomer, axis not shown; (M)) [Example 199, (S)-2-(tert-butoxy)-2-((M)-6-(8-fluoro-5-methylchroman-6-yl)-2-(2-methoxybenzoyl)-4,7-dimethylisoindolin-5-yl)acetic acid] showed an IC50 of 4 nM.

`COc1cc(C)ccc1C(=O)N1Cc2c(C)c(-c3cc(F)c4c(c3C)CCCO4)c([C@H](OC(C)(C)C)C(=O)O)c(C)c2C1` (atropisomer, axis not shown; (M)) [Example 200, (S)-2-(tert-butoxy)-2-((M)-6-(8-fluoro-5-methylchroman-6-yl)-2-(2-methoxy-4-methylbenzoyl)-4,7-dimethylisoindolin-5-yl)acetic acid] came in with an IC50 of 11 nM. As to `Cc1c(-c2c(C)c3c(c(C)c2[C@H](OC(C)(C)C)C(=O)O)CN(c2nnc(-c4cccc(F)c4)o2)C3)cc(F)c2c1CCCO2` (atropisomer, axis not shown; (M)) [Example 201, (S)-2-(tert-butoxy)-2-((M)-6-(8-fluoro-5-methylchroman-6-yl)-2-(5-(3-fluorophenyl)-1,3,4-oxadiazol-2-yl)-4,7-dimethylisoindolin-5-yl)acetic acid], the IC50 came out at 387 nM. `Cc1c(-c2c(C)c3c(c(C)c2[C@H](OC(C)(C)C)C(=O)O)CN(c2nc4ccccc4o2)C3)cc(F)c2c1CCCO2` (atropisomer, axis not shown; (M)) [Example 202, (S)-2-((M)-2-(benzo[d]oxazol-2-yl)-6-(8-fluoro-5-methylchroman-6-yl)-4,7-dimethylisoindolin-5-yl)-2-(tert-butoxy)acetic acid] registered an IC50 of 124 nM.

For the compound `Cc1c(-c2c(C)c3c(c(C)c2[C@H](OC(C)(C)C)C(=O)O)CN(c2nnc(Cc4ccc(F)c(F)c4)o2)C3)cc(F)c2c1CCCO2` (atropisomer, axis not shown; (M)) [Example 203, (S)-2-(tert-butoxy)-2-((M)-2-(5-(3,4-difluorobenzyl)-1,3,4-oxadiazol-2-yl)-6-(8-fluoro-5-methylchroman-6-yl)-4,7-dimethylisoindolin-5-yl)acetic acid], 63 nM corresponded to half-maximal inhibition (IC50). Compound `Cc1c(-c2c(C)c3c(c(C)c2[C@H](OC(C)(C)C)C(=O)O)CN(c2nc4cc(F)ccc4o2)C3)cc(F)c2c1CCCO2` (atropisomer, axis not shown; (M)) [Example 204, (S)-2-(tert-butoxy)-2-((M)-6-(8-fluoro-5-methylchroman-6-yl)-2-(5-fluorobenzo[d]oxazol-2-yl)-4,7-dimethylisoindolin-5-yl)acetic acid] showed an IC50 of 665 nM. `Cc1c(-c2c(C)c3c(c(C)c2[C@H](OC(C)(C)C)C(=O)O)CN(C(=O)N2CCCC[C@H]2C)C3)cc(F)c2c1CCCO2` (atropisomer, axis not shown; (M)) [Example 205, (S)-2-(tert-butoxy)-2-((M)-6-(8-fluoro-5-methylchroman-6-yl)-4,7-dimethyl-2-((M)-2-methylpiperidine-1-carbonyl)isoindolin-5-yl)acetic acid] came in with an IC50 of 4 nM.

As to `Cc1c(-c2c(C)c3c(c(C)c2[C@H](OC(C)(C)C)C(=O)O)CN(C(=O)N2CCCC(C)(C)CC2)C3)cc(F)c2c1CCCO2` (atropisomer, axis not shown; (M)) [Example 206, (S)-2-(tert-butoxy)-2-((M)-2-(4,4-dimethylazepane-1-carbonyl)-6-(8-fluoro-5-methylchroman-6-yl)-4,7-dimethylisoindolin-5-yl)acetic acid], the half-inhibitory concentration (IC50) was found to be 5 nM. For `Cc1c(-c2c(C)c3c(c(C)c2[C@H](OC(C)(C)C)C(=O)O)CN(C(=O)NCC(C)(C)C)C3)cc(F)c2c1CCCO2` (atropisomer, axis not shown; (M)) [Example 207, (S)-2-(tert-butoxy)-2-((M)-6-(8-fluoro-5-methylchroman-6-yl)-4,7-dimethyl-2-(neopentylcarbamoyl)isoindolin-5-yl)acetic acid], the midpoint of inhibition, the IC50, lay at 4 nM. As for `Cc1c(-c2c(C)c3c(c(C)c2[C@H](OC(C)(C)C)C(=O)O)CN(C(=O)N2CCCC2)C3)cc(F)c2c1CCCO2` (atropisomer, axis not shown; (M)) [Example 208, (S)-2-(tert-butoxy)-2-((M)-6-(8-fluoro-5-methylchroman-6-yl)-4,7-dimethyl-2-(pyrrolidine-1-carbonyl)isoindolin-5-yl)acetic acid], the IC50 worked out at 4 nM. In turn, `Cc1c(-c2c(C)c3c(c(C)c2[C@H](OC(C)(C)C)C(=O)O)CN(C(=O)N2CCOC[C@@H]2C)C3)cc(F)c2c1CCCO2` (atropisomer, axis not shown; (M)) [Example 209, (S)-2-(tert-butoxy)-2-((M)-6-(8-fluoro-5-methylchroman-6-yl)-4,7-dimethyl-2-((S)-3-methylmorpholine-4-carbonyl)isoindolin-5-yl)acetic acid] yielded an IC50 of 23 nM. The value for `Cc1c(-c2c(C)c3c(c(C)c2[C@H](OC(C)(C)C)C(=O)O)CN(C(=O)Nc2cccc(F)c2)C3)cc(F)c2c1CCCO2` (atropisomer, axis not shown; (M)) [Example 210, (S)-2-(tert-butoxy)-2-((M)-6-(8-fluoro-5-methylchroman-6-yl)-2-((3-fluorophenyl)carbamoyl)-4,7-dimethylisoindolin-5-yl)acetic acid] was 14 nM. In turn, `Cc1c(-c2c(C)c3c(c(C)c2[C@H](OC(C)(C)C)C(=O)O)CN(C(=O)N2CCC(C)(C)CC2)C3)cc(F)c2c1CCCO2` (atropisomer, axis not shown; (M)) [Example 211, (S)-2-(tert-butoxy)-2-((M)-2-(4,4-dimethylpiperidine-1-carbonyl)-6-(8-fluoro-5-methylchroman-6-yl)-4,7-dimethylisoindolin-5-yl)acetic acid] yielded a half-maximal inhibitory concentration (IC50) of 5 nM. The compound `Cc1c(-c2c(C)c3c(c(C)c2[C@H](OC(C)(C)C)C(=O)O)CN(C(=O)N2CCC[C@@H]2C)C3)cc(F)c2c1CCCO2` (atropisomer, axis not shown; (M)) [Example 212, (S)-2-(tert-butoxy)-2-((M)-6-(8-fluoro-5-methylchroman-6-yl)-4,7-dimethyl-2-((S)-2-methylpyrrolidine-1-carbonyl)isoindolin-5-yl)acetic acid] had an IC50 of 2 nM. In turn, `Cc1c(-c2c(C)c3c(c(C)c2[C@H](OC(C)(C)C)C(=O)O)CN(C(=O)N2CCC(F)(F)CC2)C3)cc(F)c2c1CCCO2` (atropisomer, axis not shown; (M)) [Example 213, (S)-2-(tert-butoxy)-2-((M)-2-(4,4-difluoropiperidine-1-carbonyl)-6-(8-fluoro-5-methylchroman-6-yl)-4,7-dimethylisoindolin-5-yl)acetic acid] returned an IC50 of 3 nM. `Cc1c(-c2c(C)c3c(c(C)c2[C@H](OC(C)(C)C)C(=O)O)CN(C(=O)N2CCC(C)(C)C2)C3)cc(F)c2c1CCCO2` (atropisomer, axis not shown; (M)) [Example 214, (S)-2-(tert-butoxy)-2-((M)-2-(3,3-dimethylpyrrolidine-1-carbonyl)-6-(8-fluoro-5-methylchroman-6-yl)-4,7-dimethylisoindolin-5-yl)acetic acid] registered a concentration for half-maximal inhibition (IC50) of 3 nM.

The compound `Cc1c(-c2c(C)c3c(c(C)c2[C@H](OC(C)(C)C)C(=O)O)CN(C(=O)C(=O)N2CCCCC2)C3)cc(F)c2c1CCCO2` (atropisomer, axis not shown; (M)) [Example 215] gave an IC50 of 10 nM. Consider `Cc1c(-c2c(C)c3c(c(C)c2[C@H](OC(C)(C)C)C(=O)O)CN(Cc2cccc4c2OCO4)C3)cc(F)c2c1CCCO2` (atropisomer, axis not shown; (M)) [Example 216, (S)-2-((M)-2-(benzo[d][1,3]dioxol-4-ylmethyl)-6-(8-fluoro-5-methylchroman-6-yl)-4,7-dimethylisoindolin-5-yl)-2-(tert-butoxy)acetic acid], for which the IC50 was 4 nM. The compound `Cc1c(-c2c(C)c3c(c(C)c2[C@H](OC(C)(C)C)C(=O)O)CN(C(=O)Oc2ccccc2)C3)cc(F)c2c1CCCO2` (atropisomer, axis not shown; (M)) [Example 217, (S)-2-(tert-butoxy)-2-((M)-6-(8-fluoro-5-methylchroman-6-yl)-4,7-dimethyl-2-(phenoxycarbonyl)isoindolin-5-yl)acetic acid] yielded an IC50 of 12 nM. For `Cc1c(-c2c(C)c3c(c(C)c2[C@H](OC(C)(C)C)C(=O)O)CN(S(=O)(=O)c2cccc(F)c2)C3)cc(F)c2c1CCCO2` (atropisomer, axis not shown; (M)) [Example 218, (S)-2-(tert-butoxy)-2-((M)-6-(8-fluoro-5-methylchroman-6-yl)-2-((3-fluorophenyl)sulfonyl)-4,7-dimethylisoindolin-5-yl)acetic acid], the IC50 stood at 11 nM.

The compound `Cc1c(-c2c(C)c3c(c(C)c2[C@H](OC(C)(C)C)C(=O)O)CN(C(=O)c2cc(F)ccc2F)C3)cc(F)c2c1CCCO2` (atropisomer, axis not shown; (M)) [Example 285, (S)-2-(tert-butoxy)-2-((M)-2-(2,5-difluorobenzoyl)-6-(8-fluoro-5-methylchroman-6-yl)-4,7-dimethylisoindolin-5-yl)acetic acid] yielded an IC50 of 2 nM. For the compound `COc1ccc(C(=O)N2Cc3c(C)c(-c4cc(F)c5c(c4C)CCCO5)c([C@H](OC(C)(C)C)C(=O)O)c(C)c3C2)c(C)c1` (atropisomer, axis not shown; (M)) [Example 286, (S)-2-(tert-butoxy)-2-((M)-6-(8-fluoro-5-methylchroman-6-yl)-2-(4-methoxy-2-methylbenzoyl)-4,7-dimethylisoindolin-5-yl)acetic acid], the IC50 stood at 11 nM. In turn, `Cc1c(-c2c(C)c3c(c(C)c2[C@H](OC(C)(C)C)C(=O)O)CN(C(=O)c2cccc(F)c2)C3)cc(F)c2c1NCCO2` (atropisomer, axis not shown; (M)) [Example 301, (S)-2-(tert-butoxy)-2-(6-((M)-8-fluoro-5-methyl-3,4-dihydro-2H-benzo[b][1,4]oxazin-6-yl)-2-(3-fluorobenzoyl)-4,7-dimethylisoindolin-5-yl)acetic acid] gave an IC50 of 5 nM.
